PubChem BioAssay AID276 (DTP/NCI, 2004)
Values joined by “and” are separate entries in the source; they are usually repeats but may differ in a detail not shown here. Equal values may be shown once. Inconclusive results and toxic doses are left out. Rule for the calls: active = survival T/C of 150% or more; inactive = T/C below 125% in these data.

Test system: B6C3F1 mice, Lewis lung carcinoma iv, survival T/C
Experiment: NCI In Vivo Anticancer Drug Screen. Data for tumor model Lewis Lung Carcinoma (intravenous) in B6C3F1 mice
Details: endpoint: median survival time, schedule: Q01DX009 (ip), higher = longer survival
How it was run: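 Transplantable tumor in mice; compound treated vs vehicle controls; read-out survival; value = treated/control (T/C).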

[1] = dose: 25.0 mg/kg/injection, vehicle: Klucel (hydroxypropylcellulose) (HPC)
[2] = dose: 50.0 mg/kg/injection, vehicle: Klucel (hydroxypropylcellulose) (HPC)
[3] = dose: 100.0 mg/kg/injection, vehicle: Klucel (hydroxypropylcellulose) (HPC)
[4] = dose: 200.0 mg/kg/injection, vehicle: Klucel (hydroxypropylcellulose) (HPC)
[5] = dose: 12.5 mg/kg/injection, vehicle: saline
[6] = dose: 25.0 mg/kg/injection, vehicle: saline
[7] = dose: 50.0 mg/kg/injection, vehicle: saline
[8] = dose: 25.0 mg/kg/injection, vehicle: saline with Tween-80
[9] = dose: 50.0 mg/kg/injection, vehicle: saline with Tween-80
[10] = dose: 100.0 mg/kg/injection, vehicle: saline with Tween-80
[11] = dose: 25.0 mg/kg/injection, vehicle: water
[12] = dose: 50.0 mg/kg/injection, vehicle: water
[13] = dose: 200.0 mg/kg/injection, vehicle: saline with Tween-80
[14] = dose: 400.0 mg/kg/injection, vehicle: saline with Tween-80
[15] = dose: 100.0 mg/kg/injection, vehicle: saline

Measured: T/C

O=C(O)C1(NO)CCCCC1
inactive: dose: 12.5 mg/kg/injection, vehicle: Klucel (hydroxypropylcellulose) (HPC) 95 % of control and 106 % of control | [1] 101 % of control and 106 % of control | [2] 100 % of control and 101 % of control | [3] 102 % of control and 105 % of control | [4] 95 % of control and 108 % of control | dose: 400.0 mg/kg/injection, vehicle: Klucel (hydroxypropylcellulose) (HPC) 97 % of control and 109 % of control

COc1cccc2c1C(=O)c1c(O)c3c(c(O)c1C2=O)C[C@H](O)C[C@@H]3OC1CC(N)C(O)C(C)O1 (stereo partly drawn)
inactive: dose: 0.75 mg/kg/injection, vehicle: water 100 % of control | dose: 1.5 mg/kg/injection, vehicle: water 104 % of control | dose: 3.0 mg/kg/injection, vehicle: water 100 % of control | dose: 6.0 mg/kg/injection, vehicle: water 104 % of control

[CH3][Sn]([CH3])([Cl])[S]CCN
inactive: dose: 3.12 mg/kg/injection, vehicle: saline 99 % of control | dose: 6.25 mg/kg/injection, vehicle: saline 105 % of control | [5] 99 % of control | [6] 100 % of control | [7] 96 % of control

NC(C(=O)O)c1ccc(CBr)cc1 (stereo not drawn)
inactive: dose: 12.5 mg/kg/injection, vehicle: saline with Tween-80 97 % of control | [8] 100 % of control | [9] 105 % of control | [10] 93 % of control

Cn1c(=O)[nH]c2nncnc2c1=O
inactive: dose: 3.12 mg/kg/injection, vehicle: water 97 % of control | dose: 6.25 mg/kg/injection, vehicle: water 105 % of control | dose: 12.5 mg/kg/injection, vehicle: water 102 % of control | [11] 94 % of control | [12] 90 % of control

O=C(NC1CCCCC1)OCc1c(COC(=O)NC2CCCCC2)c(-c2ccc(Cl)c(Cl)c2)n2c1CCC2
inactive: [8] 100 % of control and 108 % of control | [9] 102 % of control and 105 % of control | [10] 95 % of control and 108 % of control | [13] 106 % of control and 113 % of control | [14] 110 % of control and 120 % of control

CCC1OC(OC)C=CC1=O (stereo not drawn)
inactive: [5] 97 % of control | [7] 97 % of control

C[C@]12CC[C@H](O)CC1=CC[C@@H]1[C@@H]2CC[C@]2(C)C(=O)CC[C@@H]12
inactive: [8] 105 % of control | [9] 100 % of control | [10] 101 % of control | [13] 94 % of control | [14] 99 % of control

Cc1cc(NC(=S)SCc2ccc3c(c2)OCO3)ccc1Cl
inactive: [1] 114 % of control | [2] 114 % of control | [3] 115 % of control

CC[As](=O)(O)CC
inactive: [7] 95 % of control | [15] 103 % of control | dose: 200.0 mg/kg/injection, vehicle: saline 103 % of control

CCCCCn1c(C)cc(/C=C\c2ccc3cc(C)ccc3[n+]2C)c1C
inactive: dose: 37.5 micrograms/kg/injection, vehicle: Klucel (hydroxypropylcellulose) (HPC) 107 % of control | dose: 75.0 micrograms/kg/injection, vehicle: Klucel (hydroxypropylcellulose) (HPC) 109 % of control | dose: 150.0 micrograms/kg/injection, vehicle: Klucel (hydroxypropylcellulose) (HPC) 104 % of control | dose: 300.0 micrograms/kg/injection, vehicle: Klucel (hydroxypropylcellulose) (HPC) 97 % of control

O=C(C1CO1)C(Cl)(Cl)Cl (stereo not drawn)
inactive: dose: 1.5 mg/kg/injection, vehicle: saline 95 % of control | dose: 3.0 mg/kg/injection, vehicle: saline 92 % of control | dose: 6.0 mg/kg/injection, vehicle: saline 97 % of control | dose: 12.0 mg/kg/injection, vehicle: saline 95 % of control | [8] 108 % of control

N#CC(OC1OC(COC2OC(CO)C(O)C(O)C2O)C(O)C(O)C1O)c1ccccc1 (stereo not drawn)
inactive: [11] 92 % of control | [12] 97 % of control | dose: 100.0 mg/kg/injection, vehicle: water 98 % of control | dose: 200.0 mg/kg/injection, vehicle: water 98 % of control | dose: 400.0 mg/kg/injection, vehicle: water 98 % of control | dose: 800.0 mg/kg/injection, vehicle: water 98 % of control

O=NN(CCCl)C(=O)NC1OC(CO)C(O)C(O)C1O (stereo not drawn)
inactive: dose: 2.0 mg/kg/injection, vehicle: saline 121 % of control

N=C1CCCS1
inactive: [6] 117 % of control | [7] 122 % of control

Oc1ccc(CCl)c2cccnc12
inactive: [5] 105 % of control | [6] 103 % of control | [7] 103 % of control | [15] 98 % of control

COC1=C2C[C@@H](C)C[C@@H](OC)[C@@H](O)[C@H](C)/C=C(\C)[C@@H](OC(N)=O)[C@H](OC)/C=C\C=C(/C)C(=O)NC(=CC1=O)C2=O
inactive: dose: 0.12 mg/kg/injection, vehicle: saline with Tween-80 96 % of control | dose: 0.13 mg/kg/injection, vehicle: saline with Tween-80 109 % of control | dose: 0.25 mg/kg/injection, vehicle: saline with Tween-80 96 % of control and 110 % of control | dose: 0.5 mg/kg/injection, vehicle: saline with Tween-80 101 % of control and 108 % of control | dose: 1.0 mg/kg/injection, vehicle: saline with Tween-80 101 % of control and 106 % of control | dose: 2.0 mg/kg/injection, vehicle: saline with Tween-80 100 % of control and 106 % of control | dose: 4.0 mg/kg/injection, vehicle: saline with Tween-80 102 % of control

CC1(C)CC23C4COC(=O)C2CCC1C3CC4=O (stereo not drawn)
inactive: dose: 3.0 mg/kg/injection, vehicle: DMSO 103 % of control | dose: 6.0 mg/kg/injection, vehicle: DMSO 97 % of control and 99 % of control | dose: 12.0 mg/kg/injection, vehicle: DMSO 100 % of control and 102 % of control | dose: 24.0 mg/kg/injection, vehicle: DMSO 95 % of control and 124 % of control | dose: 48.0 mg/kg/injection, vehicle: DMSO 103 % of control and 106 % of control | dose: 96.0 mg/kg/injection, vehicle: DMSO 102 % of control | dose: 192.0 mg/kg/injection, vehicle: DMSO 98 % of control

COC(=O)C12OCC34C(CC5C(C)C6=CC(=O)OC6=CC5(C)C3C(O)C1O)OC(=O)C(OC(C)=O)C24 (stereo not drawn)
inactive: dose: 2.0 mg/kg/injection, vehicle: saline + alcohol 102 % of control | dose: 4.0 mg/kg/injection, vehicle: saline + alcohol 97 % of control | dose: 8.0 mg/kg/injection, vehicle: saline + alcohol 96 % of control | dose: 16.0 mg/kg/injection, vehicle: saline + alcohol 98 % of control | dose: 125.0 micrograms/kg/injection, vehicle: saline + alcohol 114 % of control | dose: 250.0 micrograms/kg/injection, vehicle: saline + alcohol 118 % of control | dose: 500.0 micrograms/kg/injection, vehicle: saline + alcohol 109 % of control | dose: 1000.0 micrograms/kg/injection, vehicle: saline + alcohol 106 % of control | dose: 2000.0 micrograms/kg/injection, vehicle: saline + alcohol 112 % of control

COC(=O)Nc1cn2ccc(Sc3ccccc3)cc2n1
inactive: [2] 101 % of control | [3] 106 % of control | [4] 101 % of control

CN(C)C1C(=O)C(C(=O)NP(=O)(NCCCO)N(CCCl)CCCl)=C(O)C2(O)C(=O)C3=C(O)c4c(O)cccc4C(C)(O)C3CC12 (stereo not drawn)
inactive: [8] 104 % of control | [9] 119 % of control | [10] 93 % of control
